Laboratory results from PubChem BioAssay (NCI).
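1) Cells in 96-well plates. 2) Compound, 48 h, 5 concentrations. 3) Linear interpolation between surrounding doses. 4) Unreached endpoint = highest concentration. The concentration for 50% growth inhibition is given as GI50. At the TGI there is no net growth.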

Legend:
Test in all cases: DTP human tumour cell line panel, 48 h; in the data active = GI50 below about 0.43 µM; inactive = the rest
OVCAR-3 ovarian = test system: OVCAR-3 ovarian
RPMI-8226 leukemia = test system: RPMI-8226 leukemia
HS 578T breast = test system: HS 578T breast
SK-MEL-28 melanoma = test system: SK-MEL-28 melanoma
KM12 colon = test system: KM12 colon
CAKI-1 renal = test system: CAKI-1 renal
COLO 205 colon = test system: COLO 205 colon
U251 CNS = test system: U251 CNS
CCRF-CEM leukemia = test system: CCRF-CEM leukemia
HCC-2998 colon = test system: HCC-2998 colon
K-562 leukemia = test system: K-562 leukemia
EKVX NSCLC = test system: EKVX NSCLC
NCI-H226 lung = test system: NCI-H226 lung
NCI-H460 lung = test system: NCI-H460 lung
786-0 renal = test system: 786-0 renal
HT29 colon = test system: HT29 colon
UACC-257 melanoma = test system: UACC-257 melanoma
OVCAR-5 ovarian = test system: OVCAR-5 ovarian
SR leukemia = test system: SR leukemia
SW-620 colon = test system: SW-620 colon
A549 NSCLC = test system: A549 NSCLC
IGROV1 ovarian = test system: IGROV1 ovarian
SK-MEL-2 melanoma = test system: SK-MEL-2 melanoma
SNB-19 CNS = test system: SNB-19 CNS
UO-31 renal = test system: UO-31 renal
SK-MEL-5 melanoma = test system: SK-MEL-5 melanoma
LOX IMVI melanoma = test system: LOX IMVI melanoma
UACC-62 melanoma = test system: UACC-62 melanoma
HL-60(TB) leukemia = test system: HL-60(TB) leukemia
SF-268 CNS = test system: SF-268 CNS
SK-OV-3 ovarian = test system: SK-OV-3 ovarian
SF-539 CNS = test system: SF-539 CNS
NCI-H522 lung = test system: NCI-H522 lung
SNB-75 CNS = test system: SNB-75 CNS
DU-145 prostate = test system: DU-145 prostate
HOP-92 NSCLC = test system: HOP-92 NSCLC
BT-549 breast = test system: BT-549 breast
ACHN renal = test system: ACHN renal
MCF7 breast = test system: MCF7 breast
T-47D breast = test system: T-47D breast
MDA-MB-435 = test system: MDA-MB-435
SN12C renal = test system: SN12C renal
HOP-62 NSCLC = test system: HOP-62 NSCLC
OVCAR-8 ovarian = test system: OVCAR-8 ovarian
MOLT-4 leukemia = test system: MOLT-4 leukemia
OVCAR-4 ovarian = test system: OVCAR-4 ovarian
SF-295 CNS = test system: SF-295 CNS
TK-10 renal = test system: TK-10 renal
HCT-15 colon = test system: HCT-15 colon
PC-3 prostate = test system: PC-3 prostate
MALME-3M melanoma = test system: MALME-3M melanoma
MDA-MB-231 breast = test system: MDA-MB-231 breast
A498 renal = test system: A498 renal
HCT-116 colon = test system: HCT-116 colon
NCI/ADR-RES ovarian = test system: NCI/ADR-RES ovarian
NCI-H23 lung = test system: NCI-H23 lung
M14 melanoma = test system: M14 melanoma

O=C(CCCCCCNC(=O)C(O)(O)C(F)(F)F)Nc1ccc(Cl)cc1
15.1 µM: TGI (COLO 205 colon)
22 µM: TGI (HCC-2998 colon) | TGI (MALME-3M melanoma)
35.6 µM: TGI (SN12C renal)
16.3 µM: TGI (SW-620 colon)
inactive: GI50 (OVCAR-3 ovarian) 3.83 µM | GI50 (RPMI-8226 leukemia) 3.46 µM | GI50 (HS 578T breast) 3.68 µM | GI50 (SK-MEL-28 melanoma) 5.4 µM | GI50 (KM12 colon) 7.92 µM | GI50 (CAKI-1 renal) 8.98 µM | GI50 (COLO 205 colon) 5.83 µM | GI50 (U251 CNS) 4.91 µM | GI50 (CCRF-CEM leukemia) 2.73 µM | GI50 (HCC-2998 colon) 7.62 µM | GI50 (K-562 leukemia) 1.82 µM | GI50 (EKVX NSCLC) 11.2 µM | GI50 (NCI-H226 lung) 9.49 µM | GI50 (NCI-H460 lung) 4.59 µM | GI50 (786-0 renal) 9.48 µM | GI50 (HT29 colon) 6.28 µM | GI50 (UACC-257 melanoma) 7.85 µM | GI50 (OVCAR-5 ovarian) 4.26 µM | GI50 (SR leukemia) 2.44 µM | GI50 (SW-620 colon) 4.02 µM | GI50 (A549 NSCLC) 9.56 µM | GI50 (IGROV1 ovarian) 5.11 µM | GI50 (SK-MEL-2 melanoma) 5.41 µM | GI50 (SNB-19 CNS) 7.56 µM | GI50 (UO-31 renal) 5.25 µM | GI50 (SK-MEL-5 melanoma) 5.07 µM | GI50 (LOX IMVI melanoma) 4.07 µM | GI50 (UACC-62 melanoma) 3.19 µM | GI50 (HL-60(TB) leukemia) 3.64 µM | GI50 (SF-268 CNS) 7.27 µM | GI50 (SK-OV-3 ovarian) 5.56 µM | GI50 (SF-539 CNS) 8.85 µM | GI50 (NCI-H522 lung) 4.68 µM | GI50 (SNB-75 CNS) 8.76 µM | GI50 (DU-145 prostate) 8.13 µM | GI50 (HOP-92 NSCLC) 1.06 µM | GI50 (BT-549 breast) 6.72 µM | GI50 (ACHN renal) 6.01 µM | GI50 (MCF7 breast) 10.8 µM | GI50 (T-47D breast) 5.76 µM | GI50 (MDA-MB-435) 7.13 µM | GI50 (SN12C renal) 7.66 µM | GI50 (HOP-62 NSCLC) 7.75 µM | GI50 (OVCAR-8 ovarian) 3.5 µM | GI50 (MOLT-4 leukemia) 2.87 µM | GI50 (OVCAR-4 ovarian) 15.7 µM | GI50 (SF-295 CNS) 5.77 µM | GI50 (TK-10 renal) 1.55 µM | GI50 (HCT-15 colon) 8.18 µM | GI50 (PC-3 prostate) 5.01 µM | GI50 (MALME-3M melanoma) 2.83 µM | GI50 (MDA-MB-231 breast) 5.2 µM | GI50 (A498 renal) 1.38 µM | GI50 (HCT-116 colon) 1.59 µM | GI50 (NCI/ADR-RES ovarian) 6.16 µM | GI50 (NCI-H23 lung) 7.08 µM | GI50 (M14 melanoma) 9.99 µM
10.1 µM: TGI (OVCAR-3 ovarian)
13.1 µM: TGI (SF-295 CNS)
10 µM: TGI (SK-MEL-5 melanoma)
8.94 µM: TGI (LOX IMVI melanoma)
27.3 µM: TGI (MDA-MB-231 breast)
34.2 µM: TGI (NCI-H23 lung)
23.7 µM: TGI (UO-31 renal)
8.39 µM: TGI (HOP-92 NSCLC)
19.8 µM: TGI (IGROV1 ovarian) | TGI (NCI-H522 lung)
12.5 µM: TGI (A498 renal)
24.5 µM: TGI (SF-268 CNS)
26 µM: TGI (SK-OV-3 ovarian)
28.2 µM: TGI (ACHN renal)
20.9 µM: TGI (OVCAR-5 ovarian)
34.3 µM: TGI (SK-MEL-28 melanoma)
30.9 µM: TGI (SNB-19 CNS)
> 36.8 µM: TGI (RPMI-8226 leukemia) | TGI (KM12 colon) | TGI (CAKI-1 renal) | TGI (CCRF-CEM leukemia) | TGI (K-562 leukemia) | TGI (EKVX NSCLC) | TGI (NCI-H226 lung) | TGI (NCI-H460 lung) | TGI (786-0 renal) | TGI (HT29 colon) | TGI (UACC-257 melanoma) | TGI (SR leukemia) | TGI (A549 NSCLC) | TGI (HL-60(TB) leukemia) | TGI (SF-539 CNS) | TGI (SNB-75 CNS) | TGI (DU-145 prostate) | TGI (MCF7 breast) | TGI (T-47D breast) | TGI (MDA-MB-435) | TGI (HOP-62 NSCLC) | TGI (OVCAR-8 ovarian) | TGI (MOLT-4 leukemia) | TGI (OVCAR-4 ovarian) | TGI (TK-10 renal) | TGI (HCT-15 colon) | TGI (PC-3 prostate) | TGI (HCT-116 colon) | TGI (M14 melanoma)
9.28 µM: TGI (UACC-62 melanoma)
35 µM: TGI (BT-549 breast)
28.7 µM: TGI (NCI/ADR-RES ovarian)
21 µM: TGI (U251 CNS)
17.6 µM: TGI (SK-MEL-2 melanoma)
30.1 µM: TGI (HS 578T breast)
